Experimental data published in ChEMBL document CHEMBL1201862, “PubChem BioAssay data set” (2004).
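48-hour exposure; five concentrations; linearly interpolated endpoints. Here, GI50 denotes the concentration required for 50% inhibition of growth.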 Active and inactive are the calls of the source. Cut-off read from the data, not from the text of the source: active = GI50 up to about 1.1 µM and inactive = higher.

How the values were obtained:
Assay in all cases: growth of human tumour cells (NCI), 48 h
[1] = system: UO-31
[2] = system: SK-OV-3
[3] = system: UACC-62
[4] = system: KM-20L2
[5] = system: SK-MEL-28
[6] = system: CCRF-CEM
[7] = system: HOP-62
[8] = system: RPMI-8226
[9] = system: HCC 2998
[10] = system: OVCAR-8
[11] = system: HT-29
[12] = system: ACHN
[13] = system: NCI-H226
[14] = system: Malme-3M
[15] = system: SR
[16] = system: HOP-92

SMILES	GI50 [1]	GI50 [2]	GI50 [3]	GI50 [4]	GI50 [5]	GI50 [6]	GI50 [7]	GI50 [8]	GI50 [9]	GI50 [10]	GI50 [11]	GI50 [12]	GI50 [13]	GI50 [14]	GI50 [15]	GI50 [16]
CC(=O)OC1CCCn2c1nc1c2C(=O)C(C)=C(N2CC2)C1=O (stereo not drawn)	0.605 µM (active)	0.364 µM (active)	0.301 µM (active)	0.45 µM (active)	0.522 µM (active)	3.51 µM (inactive)	0.216 µM (active)	1.07 µM (active)	0.232 µM (active)	0.388 µM (active)	0.208 µM (active)	0.254 µM (active)	0.318 µM (active)	0.219 µM (active)	18.1 µM (inactive)	27.8 µM (inactive)
S=c1[nH]c2ccc(Br)cc2c(=S)n1-c1ccccc1	16.4 µM (inactive)	43.4 µM (inactive)	10.5 µM (inactive)	35.2 µM (inactive)	9.89 µM (inactive)	11.8 µM (inactive)	24.4 µM (inactive)	8.26 µM (inactive)	13.7 µM (inactive)	30.5 µM (inactive)	21.9 µM (inactive)	20.3 µM (inactive)	24.5 µM (inactive)	17.5 µM (inactive)		20 µM (inactive)
CCSc1c2ccccc2c(-c2nc(F)nc(F)n2)n1CCc1ccccc1	> 100 µM (inactive)			> 100 µM (inactive)	> 100 µM (inactive)	36.2 µM (inactive)	> 100 µM (inactive)	> 100 µM (inactive)	> 100 µM (inactive)		> 100 µM (inactive)	> 100 µM (inactive)	> 100 µM (inactive)	> 100 µM (inactive)	51.3 µM (inactive)	> 100 µM (inactive)
COC(=O)CCC(=O)N1CC1C (stereo not drawn)	> 100 µM (inactive)	> 100 µM (inactive)	> 100 µM (inactive)	> 100 µM (inactive)	> 100 µM (inactive)	> 100 µM (inactive)	> 100 µM (inactive)	> 100 µM (inactive)	> 100 µM (inactive)	> 100 µM (inactive)	> 100 µM (inactive)	> 100 µM (inactive)	> 100 µM (inactive)	> 100 µM (inactive)	> 100 µM (inactive)	> 100 µM (inactive)
BrC12c3ccccc3Sc3ccccc3C1(Br)c1ccccc12 (stereo not drawn)	33 µM (inactive)	42.1 µM (inactive)	16.7 µM (inactive)	20.6 µM (inactive)		4.93 µM (inactive)	19.5 µM (inactive)	13.5 µM (inactive)	28.8 µM (inactive)	32.1 µM (inactive)	34.8 µM (inactive)	24.2 µM (inactive)	16.7 µM (inactive)	30.7 µM (inactive)	11.1 µM (inactive)	19.8 µM (inactive)
CCOc1ccc(NC(=O)C(=O)NO)cc1	> 100 µM (inactive)	> 100 µM (inactive)	> 100 µM (inactive)	> 100 µM (inactive)	> 100 µM (inactive)	> 100 µM (inactive)	> 100 µM (inactive)	> 100 µM (inactive)	> 100 µM (inactive)	> 100 µM (inactive)	> 100 µM (inactive)	> 100 µM (inactive)	> 100 µM (inactive)	> 100 µM (inactive)	55.3 µM (inactive)	> 100 µM (inactive)
Cc1cc(O)nc(CNC(=O)c2cccc3ccccc23)n1	> 100 µM (inactive)	> 100 µM (inactive)	> 100 µM (inactive)	> 100 µM (inactive)	> 100 µM (inactive)	> 100 µM (inactive)	> 100 µM (inactive)		> 100 µM (inactive)	> 100 µM (inactive)	> 100 µM (inactive)	> 100 µM (inactive)	> 100 µM (inactive)	> 100 µM (inactive)	> 100 µM (inactive)	> 100 µM (inactive)
c1ccc2c(CNCCCCCCNCc3cccc4ccccc34)cccc2c1	11.3 µM (inactive)	17.5 µM (inactive)	9.73 µM (inactive)	2.61 µM (inactive)	1.85 µM (inactive)	3.06 µM (inactive)	16.1 µM (inactive)	2.27 µM (inactive)		14.5 µM (inactive)	2.23 µM (inactive)	15.6 µM (inactive)	17.4 µM (inactive)	1.95 µM (inactive)	2.14 µM (inactive)	6.14 µM (inactive)
O=c1[nH]c(=O)n(C2OC(COP(=O)(O)OP(=O)(O)O)C(O)C2O)cc1F (stereo not drawn)	6.08 µM (inactive)	3.92 µM (inactive)	2.7 µM (inactive)	0.923 µM (active)	2.13 µM (inactive)	0.817 µM (active)	2.24 µM (inactive)	0.436 µM (active)	0.538 µM (active)	2.11 µM (inactive)	0.716 µM (active)	0.178 µM (active)	3.13 µM (inactive)	0.726 µM (active)	1.34 µM (inactive)	> 50 µM (inactive)
COC1C2C[C@@H](O)CCC2C(C(=O)OCCl)C[C@H]1O (stereo partly drawn)	> 100 µM (inactive)	> 100 µM (inactive)	> 100 µM (inactive)	> 100 µM (inactive)	> 100 µM (inactive)	> 100 µM (inactive)	> 100 µM (inactive)	> 100 µM (inactive)	> 100 µM (inactive)	> 100 µM (inactive)		> 100 µM (inactive)	> 100 µM (inactive)	> 100 µM (inactive)	> 100 µM (inactive)	
COCC12CC(CC1=O)C1C2ON2c3ccccc3C(=O)C12c1ccccc1 (stereo not drawn)	> 100 µM (inactive)	> 100 µM (inactive)	77.4 µM (inactive)	> 100 µM (inactive)	> 100 µM (inactive)	61.2 µM (inactive)	> 100 µM (inactive)	40.7 µM (inactive)	> 100 µM (inactive)	> 100 µM (inactive)	> 100 µM (inactive)	> 100 µM (inactive)	> 100 µM (inactive)	> 100 µM (inactive)	88.1 µM (inactive)	> 100 µM (inactive)
CCOC(=O)N1CCC(=O)C[C@@H]1C/C=C/P1(=O)O[C@H](c2ccccc2)C(C)N1C(C)C (stereo partly drawn)	> 100 µM (inactive)	> 100 µM (inactive)	> 100 µM (inactive)	> 100 µM (inactive)	> 100 µM (inactive)			> 100 µM (inactive)	> 100 µM (inactive)	> 100 µM (inactive)	> 100 µM (inactive)	> 100 µM (inactive)	> 100 µM (inactive)	> 100 µM (inactive)	> 100 µM (inactive)	> 100 µM (inactive)
CS/C(C)=N/OC(=O)NCCCCNc1ccc(N=[N+]=[N-])cc1	20.7 µM (inactive)	37.9 µM (inactive)	21.8 µM (inactive)	41.5 µM (inactive)	49.7 µM (inactive)	24.2 µM (inactive)	48.2 µM (inactive)	18.4 µM (inactive)	23.9 µM (inactive)	47.9 µM (inactive)	46.2 µM (inactive)	26.2 µM (inactive)	21 µM (inactive)	32 µM (inactive)	37.8 µM (inactive)	55.3 µM (inactive)
c1csc(C[N+]23CN4CN(CN(C4)C2)C3)c1	> 100 µM (inactive)		22.6 µM (inactive)	26.5 µM (inactive)	> 100 µM (inactive)	18.3 µM (inactive)	21.4 µM (inactive)	18.9 µM (inactive)	19.3 µM (inactive)	28.2 µM (inactive)	> 100 µM (inactive)	37.5 µM (inactive)	> 100 µM (inactive)	18.3 µM (inactive)	15.3 µM (inactive)	22.7 µM (inactive)
Cc1c(Cl)cccc1NC(=O)C(=O)C1C(=O)NC(=O)NC1=O	> 100 µM (inactive)	> 100 µM (inactive)	> 100 µM (inactive)	> 100 µM (inactive)	> 100 µM (inactive)	> 100 µM (inactive)	> 100 µM (inactive)	> 100 µM (inactive)	> 100 µM (inactive)	> 100 µM (inactive)	> 100 µM (inactive)	> 100 µM (inactive)	> 100 µM (inactive)	> 100 µM (inactive)	> 100 µM (inactive)	> 100 µM (inactive)
CSc1ccc(NC(=O)C2c3[nH]c4ccccc4c3C3CCC(C(C)(C)C)CC3C2C(=O)O)cc1 (stereo not drawn)	17.5 µM (inactive)	16.5 µM (inactive)	17.4 µM (inactive)	16.3 µM (inactive)	22.9 µM (inactive)	10.7 µM (inactive)	16.9 µM (inactive)	20.3 µM (inactive)	33 µM (inactive)	14.8 µM (inactive)	16.5 µM (inactive)	15.3 µM (inactive)	15.3 µM (inactive)	20.9 µM (inactive)	11.5 µM (inactive)	23.2 µM (inactive)
COCCNC(=O)C1C(=O)N(CCOC)C(=O)/C1=N/N (stereo not drawn)	> 100 µM (inactive)	> 100 µM (inactive)	> 100 µM (inactive)	> 100 µM (inactive)	> 100 µM (inactive)	> 100 µM (inactive)		> 100 µM (inactive)			> 100 µM (inactive)	> 100 µM (inactive)	> 100 µM (inactive)	> 100 µM (inactive)	> 100 µM (inactive)	> 100 µM (inactive)
C[S+]([O-])c1ccc(COP(N)(=O)N(CCCl)CCCl)cc1 (stereo not drawn)	> 100 µM (inactive)	> 100 µM (inactive)	> 100 µM (inactive)	> 100 µM (inactive)	> 100 µM (inactive)	> 100 µM (inactive)	> 100 µM (inactive)	> 100 µM (inactive)	> 100 µM (inactive)	> 100 µM (inactive)	> 100 µM (inactive)	> 100 µM (inactive)	> 100 µM (inactive)	> 100 µM (inactive)	> 100 µM (inactive)	> 100 µM (inactive)
